{"source": "patent EP0971717B1", "about": "“CYTOTOXIC AMINO SUGAR AND RELATED SUGAR DERIVATIVES OF INDOLOPYRROLOCARBAZOLES” (Bristol-Myers Squibb Company, priority 1996, dated 1998)", "key": {"[1]": {"target": "T1, purified human topoisomerase I (Homo sapiens, UniProt P11387)", "T1 construct": "purchased Topogen", "T1 sequence (P11387 1-765)": "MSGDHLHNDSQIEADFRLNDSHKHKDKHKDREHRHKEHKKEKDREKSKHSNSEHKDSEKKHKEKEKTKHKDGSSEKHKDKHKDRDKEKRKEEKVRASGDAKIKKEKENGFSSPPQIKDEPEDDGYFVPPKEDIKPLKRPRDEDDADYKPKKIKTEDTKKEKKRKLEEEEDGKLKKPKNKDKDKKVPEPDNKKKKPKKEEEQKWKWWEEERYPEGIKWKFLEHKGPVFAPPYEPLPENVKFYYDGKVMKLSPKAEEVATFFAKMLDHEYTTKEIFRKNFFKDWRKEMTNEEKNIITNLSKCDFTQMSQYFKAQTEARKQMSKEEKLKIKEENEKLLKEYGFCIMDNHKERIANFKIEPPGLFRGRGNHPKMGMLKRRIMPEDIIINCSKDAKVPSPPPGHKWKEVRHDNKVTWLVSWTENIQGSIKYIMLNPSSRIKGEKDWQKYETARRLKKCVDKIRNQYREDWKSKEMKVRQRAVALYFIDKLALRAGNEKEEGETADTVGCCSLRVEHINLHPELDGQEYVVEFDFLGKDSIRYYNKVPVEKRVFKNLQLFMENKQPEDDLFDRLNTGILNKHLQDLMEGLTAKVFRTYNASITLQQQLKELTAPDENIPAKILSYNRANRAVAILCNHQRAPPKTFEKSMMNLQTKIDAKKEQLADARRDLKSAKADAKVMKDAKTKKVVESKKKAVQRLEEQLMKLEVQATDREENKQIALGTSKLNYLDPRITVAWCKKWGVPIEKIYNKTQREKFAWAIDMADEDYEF", "experiment": "Topoisomerase I mediated single strand break formation in DNA (in vitro)", "assay_type": "biochemical", "settings": "for EC50: PM2 DNA, 30 minutes at 37° C, median effective concentration for single strand DNA break formation; for Topo-I activity: result in words", "protocol": "Samples dissolved in 100% DMSO as either […] or 10 mg/ml solutions, unless otherwise stated, were diluted in Tris-EDTA buffer. Marine bacteriophage PM2 DNA (Boehringer Mannheim) was also diluted in Tris-EDTA buffer to a concentration of 0.02 µg/µl. Different dilutions of compound being evaluated were mixed with diluted DNA and this mixture was added to 1000 unit (one unit of enzyme activity is defined as the amount capable of relaxing 100 ng of supercoiled DNA in approximately 30 minutes at 37°C) aliquots of purified human topoisomerase I (Topogen) in 2X reaction buffer to start the reaction. The compound - DNA - enzyme mixture was incubated for 30 minutes at 37° C before stopping the reaction with warm stop buffer containing sodium dodecyl sulfate and proteinase K (Sigma). These mixtures were allowed to incubate at 37° C for another 10 minutes, at which time the mixtures were removed from the waterbath and extracted with a 24:1 mixture of chloroform/isoamyl alcohol. Following centrifugation, aliquots of the aqueous phases were placed in wells of a 0.9% agarose (SeaKem) gel in Tris-borate buffer containing 0.5 µg/ml of ethidium bromide and subjected to electrophoresis for 15 hours to separate the different topological isomers and nicked and broken DNAs. After destaining the gel in water, the ethidium bromide stained DNA reaction products were visualized by exposing the gel to UV irradiation. Negatives of photographs of the irradiated gels were scanned with a densitometer and areas under the peaks were calculated in order to obtain percent single strand DNA break formation for each sample. A median effective concentration(EC50) was obtained for each compound by interpolation between points of the resulting dose - effect curve which defines the potency of the compound for its effect for inducing topoisomerase I mediated single strand breaks in DNA."}, "[2]": {"test_system": "HCT116 human colon carcinoma cells", "experiment": "In-vitro cell-based cytotoxicity, XTT assay", "settings": "HCT-116, 72 hrs incubation, absorbance at 450 nm", "protocol": "The proliferation inhibition activity against human colon cell line was measured as follows.\nCytotoxicity was assessed in HCT116 human colon carcinoma cells by XTT (2,3-bis(2-methoxy-4-nitro- 5-sulfophenyl)-5-[(phenylamino)carbonyl]-2H-tetrazolium hydroxide assay as described in the literature by Scudiero, DA, Shoemaker, RH, Paull, KD, Monks, A, Tierney, S, Nofziger, TH, Currens, MJ, Seniff, D, and Boyd, MR. Evaluation of a soluble tetrazolium/formazan assay for cell growth and drug sensitivity in culture using human and other tumor cell lines, was done according to the procedure described in Cancer Res. 48: 4827-4833, 1988. Cells were plated at 4000 cells/well in 96 well microtiter plates and 24 hrs later drugs were added and serial diluted. The cells were incubated at 37° C for 72 hrs at which time the tetrazolium dye, XTT, containing phenazine methosulfate was added. A dehydrogenase enzyme in live cells reduces the XTT to a form that absorbs light at […] which can be quantitated spectrophotometrically. The greater the absorbance the greater the number of live cells. The results are expressed as an IC50 which is the drug concentration required to inhibit cell proliferation (i.e. absorbance at 450 nm) to 50% of that of untreated control cells."}, "P388 leukemia cells": {"test_system": "P388 leukemia cells", "experiment": "In-vivo anti-tumor efficacy against ip implanted P388 leukemia", "set-up": "species or system mice (BDF1 or CDF1); MST: unit not given here", "settings": "for T/C (%): ip, MST(T)/MST(C) x 100, activity defined as >= 125%; for MST: one ip injection one day after implant, median survival time of treated mice", "protocol": "In-vivo antitumor experiments were initiated by implanting mice (BDF1 or CDF1) ip with 10(6) P388 leukemia cells. Treatments were initiated one day after implant and involved one ip injection per dose level; several dose levels were evaluated per compound. Six mice were typically used per dose level in treatment groups, and eight to ten mice were used as parallel untreated leukemic controls. Evaluation of activity was made on the basis of comparing the median survival time (MST) of treated (T) mice with the MST of control (C) mice. Activity was defined as a %T/C of > or = 125%, calculated as: MST(T)/MST(C) x 100 = %T/C Table I"}}, "data": [{"compound": "O=C1NC(=O)c2c1c1c3cc(F)ccc3[nH]c1c1c2c2cc(F)ccc2n1[C@@H]1O[C@H](Cn2ccnc2)[C@@H](O)[C@H](O)[C@H]1O", "note": "[Example 34]", "values": [{"measurement": "EC50", "setting": "[1]", "result": 23000, "unit": "nM"}]}, {"compound": "O=C1c2c(c3c4cc(F)ccc4n([C@@H]4O[C@H](CF)[C@@H](O)[C@H](O)[C@H]4O)c3c3[nH]c4ccc(F)cc4c23)C(=O)N1O", "note": "[Example 48]", "values": [{"measurement": "EC50", "setting": "[1]", "result": 400, "unit": "nM"}]}, {"compound": "NC[C@H]1O[C@@H](n2c3cc(F)ccc3c3c4c(c5c6ccc(F)cc6[nH]c5c32)C(=O)N(N)C4=O)[C@H](O)[C@@H](O)[C@@H]1O", "note": "[Example 18, 6-Amino-13-(6-amino-6-deoxy-β-D-glucopyranosyl)-2,10-difluoro-12,13-dihydro-5H-indolo[2,3-a]pyrrolo[3,4-c]carbazole-5,7(6H)-dione]", "values": [{"measurement": "IC50", "setting": "[2]", "result": "> 1450", "unit": "nM"}, {"measurement": "Topo-I activity (concentration without activity)", "setting": "[1]", "result": "greater than 100 micro molar"}, {"measurement": "EC50", "setting": "[1]", "result": "> 100000", "unit": "nM"}]}, {"compound": "[N-]=[N+]=NC[C@H]1O[C@@H](n2c3ccc(F)cc3c3c4c(c5c6cc(F)ccc6[nH]c5c32)C(=O)N(O)C4=O)[C@H](O)[C@@H](O)[C@@H]1O", "note": "[Example 30, 3,9-Difluoro-12,13-dihydro-13-[6-azido-β-D-glucopyranosyl]-5H-indolo[2,3-a]pyrrolo [3,4-c] carbazole-5,7(6-hydroxy)dione]", "values": [{"measurement": "EC50", "setting": "[1]", "result": "< 10", "unit": "nM"}]}, {"compound": "NC[C@H]1O[C@@H](n2c3ccc(F)cc3c3c4c(c5c6cc(F)ccc6[nH]c5c32)C(=O)N(O)C4=O)[C@H](O)[C@@H](O)[C@@H]1O", "note": "[Example 31, 3,9-Difluoro-12,13-dihydro-13-[6-amino-β-D-glucopyranosyl]-5H-indolo[2,3-a]pyrrolo [3,4-c] carbazole-5,7(6-hydroxy)dione]", "values": [{"measurement": "EC50", "setting": "[1]", "result": "< 10", "unit": "nM"}]}, {"compound": "CS(=O)(=O)OC[C@H]1O[C@@H](n2c3ccc(F)cc3c3c4c(c5c6cc(F)ccc6[nH]c5c32)C(=O)NC4=O)[C@H](O)[C@@H](O)[C@@H]1O", "note": "[Example 15, 3,9-Difluoro-12,13-dihydro-13-[6-O-(methylsulfonyl)-β-D-glucopyranosyl]-5H-indolo[2,3-a]pyrrolo[3,4-c]carbazole-5,7(6H)-dione]", "values": [{"measurement": "IC50", "setting": "[2]", "result": 260, "unit": "nM"}, {"measurement": "EC50", "setting": "[1]", "result": 30, "unit": "nM"}]}, {"compound": "O=C1c2c(c3c4cc(F)ccc4n([C@@H]4O[C@H](CF)[C@@H](O)[C@H](O)[C@H]4O)c3c3sc4ccc(F)cc4c23)C(=O)N1O", "note": "[Example 69]", "values": [{"measurement": "EC50", "setting": "[1]", "result": 30, "unit": "nM"}]}, {"compound": "CN1CCN(C[C@H]2O[C@@H](n3c4ccc(F)cc4c4c5c(c6c7cc(F)ccc7[nH]c6c43)C(=O)NC5=O)[C@H](O)[C@@H](O)[C@@H]2O)CC1", "note": "[Example 35]", "values": [{"measurement": "IC50", "setting": "[2]", "result": 500, "unit": "nM"}, {"measurement": "EC50", "setting": "[1]", "result": 750, "unit": "nM"}]}, {"compound": "CCN(CC)C[C@H]1O[C@@H](n2c3ccc(F)cc3c3c4c(c5c6cc(F)ccc6[nH]c5c32)C(=O)N(O)C4=O)[C@H](O)[C@@H](O)[C@@H]1O", "note": "[Example 68]", "values": [{"measurement": "EC50", "setting": "[1]", "result": 30, "unit": "nM"}]}, {"compound": "O=C1NC(=O)c2c1c1c3cc(F)ccc3[nH]c1c1c2c2cc(F)ccc2n1[C@@H]1O[C@H](CF)[C@@H](O)[C@H](O)[C@H]1O", "note": "[Example 47]", "values": [{"measurement": "EC50", "setting": "[1]", "result": 100, "unit": "nM"}]}, {"compound": "NC[C@H]1O[C@@H](n2c3ccc(F)cc3c3c4c(c5c6cc(F)ccc6[nH]c5c32)C(=O)NC4=O)[C@H](O)[C@@H](O)[C@@H]1O", "note": "[Example 19]", "values": [{"measurement": "T/C (%)", "setting": "P388 leukemia cells; P388, 25 mg/kg/dose", "result": 155, "unit": "%"}, {"measurement": "MST", "setting": "P388 leukemia cells; P388, 25 mg/kg/dose", "result": 17.0}, {"measurement": "T/C (%)", "setting": "P388 leukemia cells; P388, 50 mg/kg/dose", "result": 168, "unit": "%"}, {"measurement": "MST", "setting": "P388 leukemia cells; P388, 50 mg/kg/dose", "result": 18.5}, {"measurement": "T/C (%)", "setting": "P388 leukemia cells; P388, 100 mg/kg/dose", "result": 182, "unit": "%"}, {"measurement": "MST", "setting": "P388 leukemia cells; P388, 100 mg/kg/dose", "result": 20.0}, {"measurement": "T/C (%)", "setting": "P388 leukemia cells; P388, 200 mg/kg/dose", "result": 82, "unit": "%"}, {"measurement": "MST", "setting": "P388 leukemia cells; P388, 200 mg/kg/dose", "result": 9.0}, {"measurement": "anti-tumor activity", "setting": "P388 leukemia cells; result in words", "result": "effective anti-tumor agent"}, {"measurement": "IC50", "setting": "[2]", "result": 110, "unit": "nM"}, {"measurement": "EC50", "setting": "[1]", "result": 40, "unit": "nM"}, {"measurement": "Topo-I activity", "setting": "[1]", "result": "sub micro molar"}]}, {"compound": "O=C1NC(=O)c2c1c1c3cc(F)ccc3[nH]c1c1c2c2cc(F)ccc2n1[C@@H]1O[C@H](CN2CCOCC2)[C@@H](O)[C@H](O)[C@H]1O", "note": "[Example 29, 3,9-Difluoro-12,13-dihydro-13-[6-(4N-morpholino)-β-D-glucopyranosyl]-5H-indolo[2,3-a]pyrrolo [3,4-c] carbazole-5,7(6H)-dione]", "values": [{"measurement": "T/C (%)", "setting": "P388 leukemia cells; P388, 25 mg/kg/dose", "result": 127, "unit": "%"}, {"measurement": "MST", "setting": "P388 leukemia cells; P388, 25 mg/kg/dose", "result": 14.0}, {"measurement": "T/C (%)", "setting": "P388 leukemia cells; P388, 50 mg/kg/dose", "result": 109, "unit": "%"}, {"measurement": "MST", "setting": "P388 leukemia cells; P388, 50 mg/kg/dose", "result": 12.0}, {"measurement": "T/C (%)", "setting": "P388 leukemia cells; P388, 100 mg/kg/dose", "result": 150, "unit": "%"}, {"measurement": "MST", "setting": "P388 leukemia cells; P388, 100 mg/kg/dose", "result": 16.5}, {"measurement": "T/C (%)", "setting": "P388 leukemia cells; P388, 200 mg/kg/dose", "result": 91, "unit": "%"}, {"measurement": "MST", "setting": "P388 leukemia cells; P388, 200 mg/kg/dose", "result": 10}, {"measurement": "IC50", "setting": "[2]", "result": 90, "unit": "nM"}, {"measurement": "EC50", "setting": "[1]", "result": 10, "unit": "nM"}]}, {"compound": "CO[C@H]1[C@H](O)[C@@H](O)[C@H](n2c3c(Cl)cccc3c3c4c(c5c6cccc(Cl)c6[nH]c5c32)C(=O)NC4=O)O[C@@H]1CO", "note": "[rebeccamycin, reference compound]", "values": [{"measurement": "Topo-I activity", "setting": "[1]", "result": "not Topo-I active"}]}]}
